Laboratory results taken from patent US20220281848A1, “PYRAZOLE-SUBSTITUTED PYRROLIDINONES AS HERBICIDES” (FMC Corporation, priority 2019, published 2022).

Test system: plants
Assay: Test D post-emergence, other plants of Tables D2 and D4
Type: in vivo
Conditions: for ALOMY damage rating (100=total damage to plant; 0=no damage to plant) / AVEFA damage rating (100=total damage to plant; 0=no damage to plant) / BEAVA damage rating (100=total damage to plant; 0=no damage to plant) / BROTE damage rating (100=total damage to plant; 0=no damage to plant) / BRSNN damage rating (100=total damage to plant; 0=no damage to plant) / CHEAL damage rating (100=total damage to plant; 0=no damage to plant) / GALAP damage rating (100=total damage to plant; 0=no damage to plant) / HORVW damage rating (100=total damage to plant; 0=no damage to plant) / KCHSC damage rating (100=total damage to plant; 0=no damage to plant) / LOLPE damage rating (100=total damage to plant; 0=no damage to plant) / POAAN damage rating (100=total damage to plant; 0=no damage to plant) / POLCO damage rating (100=total damage to plant; 0=no damage to plant) / STEME damage rating (100=total damage to plant; 0=no damage to plant) / VERPE damage rating (100=total damage to plant; 0=no damage to plant): "Cereals" Postemergent, evaluated after 15 d; for damage to plant (100=total damage to plant; 0=no damage to plant), ABUTH / damage to plant (100=total damage to plant; 0=no damage to plant), AMARE / damage to plant (100=total damage to plant; 0=no damage to plant), BIDPI / damage to plant (100=total damage to plant; 0=no damage to plant), BRAPL / damage to plant (100=total damage to plant; 0=no damage to plant), CYPES / damage to plant (100=total damage to plant; 0=no damage to plant), DIGSA / damage to plant (100=total damage to plant; 0=no damage to plant), ECHCG / damage to plant (100=total damage to plant; 0=no damage to plant), ELEIN / damage to plant (100=total damage to plant; 0=no damage to plant), EPHHL / damage to plant (100=total damage to plant; 0=no damage to plant), GLXMA / damage to plant (100=total damage to plant; 0=no damage to plant), IPOHE / damage to plant (100=total damage to plant; 0=no damage to plant), ORYSA / damage to plant (100=total damage to plant; 0=no damage to plant), PANMI / damage to plant (100=total damage to plant; 0=no damage to plant), SETFA / damage to plant (100=total damage to plant; 0=no damage to plant), SIDSP / damage to plant (100=total damage to plant; 0=no damage to plant), SORVU: post-emergence
How it was run: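 Seeds treated with herbicide safener; sown in soil; glasshouse, 16 h light, 65% humidity. Sprayed day 1 (pre) or ~day 12 (post). Spray in 0.2% v/v adjuvant. Scored 0–100 damage: 20 DAA pre, 15 d post.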

CCn1nc([C@@H]2CN(C)C(=O)[C@H]2C(=O)Nc2cccc(F)c2F)c2cccc(F)c21 [Compound 14]
ALOMY damage rating (100=total damage to plant; 0=no damage to plant) (Rates 130): 40 | ALOMY damage rating (100=total damage to plant; 0=no damage to plant) (Rates 250): 60 | ALOMY damage rating (100=total damage to plant; 0=no damage to plant) (Rates 500): 70 | AVEFA damage rating (100=total damage to plant; 0=no damage to plant) (Rates 130): 30 | AVEFA damage rating (100=total damage to plant; 0=no damage to plant) (Rates 250): 70 | AVEFA damage rating (100=total damage to plant; 0=no damage to plant) (Rates 500): 80 | BEAVA damage rating (100=total damage to plant; 0=no damage to plant) (Rates 130): 30 | BEAVA damage rating (100=total damage to plant; 0=no damage to plant) (Rates 250): 30 | BEAVA damage rating (100=total damage to plant; 0=no damage to plant) (Rates 500): 20 | BROTE damage rating (100=total damage to plant; 0=no damage to plant) (Rates 130): 0 | BROTE damage rating (100=total damage to plant; 0=no damage to plant) (Rates 250): 10 | BROTE damage rating (100=total damage to plant; 0=no damage to plant) (Rates 500): 30 | BRSNN damage rating (100=total damage to plant; 0=no damage to plant) (Rates 130): 40 | BRSNN damage rating (100=total damage to plant; 0=no damage to plant) (Rates 250): 50 | BRSNN damage rating (100=total damage to plant; 0=no damage to plant) (Rates 500): 40 | CHEAL damage rating (100=total damage to plant; 0=no damage to plant) (Rates 130): 50 | CHEAL damage rating (100=total damage to plant; 0=no damage to plant) (Rates 500): 40 | GALAP damage rating (100=total damage to plant; 0=no damage to plant) (Rates 130): 0 | GALAP damage rating (100=total damage to plant; 0=no damage to plant) (Rates 250): 10 | GALAP damage rating (100=total damage to plant; 0=no damage to plant) (Rates 500): 20 | HORVW damage rating (100=total damage to plant; 0=no damage to plant) (Rates 130): 20 | HORVW damage rating (100=total damage to plant; 0=no damage to plant) (Rates 250): 70 | HORVW damage rating (100=total damage to plant; 0=no damage to plant) (Rates 500): 70 | KCHSC damage rating (100=total damage to plant; 0=no damage to plant) (Rates 130): 10 | KCHSC damage rating (100=total damage to plant; 0=no damage to plant) (Rates 250): 20 | KCHSC damage rating (100=total damage to plant; 0=no damage to plant) (Rates 500): 20 | LOLPE damage rating (100=total damage to plant; 0=no damage to plant) (Rates 130): 0 | LOLPE damage rating (100=total damage to plant; 0=no damage to plant) (Rates 250): 20 | LOLPE damage rating (100=total damage to plant; 0=no damage to plant) (Rates 500): 50 | POAAN damage rating (100=total damage to plant; 0=no damage to plant) (Rates 130): 80 | POAAN damage rating (100=total damage to plant; 0=no damage to plant) (Rates 250): 90 | POAAN damage rating (100=total damage to plant; 0=no damage to plant) (Rates 500): 90 | POLCO damage rating (100=total damage to plant; 0=no damage to plant) (Rates 130): 20 | POLCO damage rating (100=total damage to plant; 0=no damage to plant) (Rates 250): 30 | POLCO damage rating (100=total damage to plant; 0=no damage to plant) (Rates 500): 40 | STEME damage rating (100=total damage to plant; 0=no damage to plant) (Rates 250): 50 | STEME damage rating (100=total damage to plant; 0=no damage to plant) (Rates 500): 70 | VERPE damage rating (100=total damage to plant; 0=no damage to plant) (Rates 130): 50 | VERPE damage rating (100=total damage to plant; 0=no damage to plant) (Rates 250): 50 | VERPE damage rating (100=total damage to plant; 0=no damage to plant) (Rates 500): 60 | damage to plant (100=total damage to plant; 0=no damage to plant), ABUTH (rate 130, evaluated after 15 d): 0 | damage to plant (100=total damage to plant; 0=no damage to plant), ABUTH (rate 250, evaluated after 15 d): 0 | damage to plant (100=total damage to plant; 0=no damage to plant), ABUTH (rate 500, evaluated after 15 d): 10 | damage to plant (100=total damage to plant; 0=no damage to plant), AMARE (rate 130, evaluated after 15 d): 0 | damage to plant (100=total damage to plant; 0=no damage to plant), AMARE (rate 250, evaluated after 15 d): 0 | damage to plant (100=total damage to plant; 0=no damage to plant), AMARE (rate 500, evaluated after 15 d): 30 | damage to plant (100=total damage to plant; 0=no damage to plant), BIDPI (rate 130, evaluated after 15 d): 10 | damage to plant (100=total damage to plant; 0=no damage to plant), BIDPI (rate 250, evaluated after 15 d): 20 | damage to plant (100=total damage to plant; 0=no damage to plant), BIDPI (rate 500, evaluated after 15 d): 30 | damage to plant (100=total damage to plant; 0=no damage to plant), BRAPL (rate 130, evaluated after 15 d): 80 | damage to plant (100=total damage to plant; 0=no damage to plant), BRAPL (rate 250, evaluated after 15 d): 70 | damage to plant (100=total damage to plant; 0=no damage to plant), BRAPL (rate 500, evaluated after 15 d): 80 | damage to plant (100=total damage to plant; 0=no damage to plant), CYPES (rate 130, evaluated after 15 d): 0 | damage to plant (100=total damage to plant; 0=no damage to plant), CYPES (rate 250, evaluated after 15 d): 0 | damage to plant (100=total damage to plant; 0=no damage to plant), CYPES (rate 500, evaluated after 15 d): 0 | damage to plant (100=total damage to plant; 0=no damage to plant), DIGSA (rate 130, evaluated after 15 d): 60 | damage to plant (100=total damage to plant; 0=no damage to plant), DIGSA (rate 250, evaluated after 15 d): 70 | damage to plant (100=total damage to plant; 0=no damage to plant), DIGSA (rate 500, evaluated after 15 d): 70 | damage to plant (100=total damage to plant; 0=no damage to plant), ECHCG (rate 250, evaluated after 15 d): 80 | damage to plant (100=total damage to plant; 0=no damage to plant), ECHCG (rate 500, evaluated after 15 d): 80 | damage to plant (100=total damage to plant; 0=no damage to plant), ELEIN (rate 130, evaluated after 15 d): 0 | damage to plant (100=total damage to plant; 0=no damage to plant), ELEIN (rate 250, evaluated after 15 d): 0 | damage to plant (100=total damage to plant; 0=no damage to plant), ELEIN (rate 500, evaluated after 15 d): 0 | damage to plant (100=total damage to plant; 0=no damage to plant), EPHHL (rate 130, evaluated after 15 d): 20 | damage to plant (100=total damage to plant; 0=no damage to plant), EPHHL (rate 250, evaluated after 15 d): 30 | damage to plant (100=total damage to plant; 0=no damage to plant), EPHHL (rate 500, evaluated after 15 d): 50 | damage to plant (100=total damage to plant; 0=no damage to plant), GLXMA (rate 130, evaluated after 15 d): 0 | damage to plant (100=total damage to plant; 0=no damage to plant), GLXMA (rate 250, evaluated after 15 d): 0 | damage to plant (100=total damage to plant; 0=no damage to plant), GLXMA (rate 500, evaluated after 15 d): 0 | damage to plant (100=total damage to plant; 0=no damage to plant), IPOHE (rate 130, evaluated after 15 d): 0 | damage to plant (100=total damage to plant; 0=no damage to plant), IPOHE (rate 250, evaluated after 15 d): 10 | damage to plant (100=total damage to plant; 0=no damage to plant), IPOHE (rate 500, evaluated after 15 d): 20 | damage to plant (100=total damage to plant; 0=no damage to plant), ORYSA (rate 130, evaluated after 15 d): 0 | damage to plant (100=total damage to plant; 0=no damage to plant), ORYSA (rate 250, evaluated after 15 d): 0 | damage to plant (100=total damage to plant; 0=no damage to plant), ORYSA (rate 500, evaluated after 15 d): 0 | damage to plant (100=total damage to plant; 0=no damage to plant), PANMI (rate 130, evaluated after 15 d): 0 | damage to plant (100=total damage to plant; 0=no damage to plant), PANMI (rate 250, evaluated after 15 d): 0 | damage to plant (100=total damage to plant; 0=no damage to plant), PANMI (rate 500, evaluated after 15 d): 0 | damage to plant (100=total damage to plant; 0=no damage to plant), SETFA (rate 130, evaluated after 15 d): 70 | damage to plant (100=total damage to plant; 0=no damage to plant), SETFA (rate 250, evaluated after 15 d): 70 | damage to plant (100=total damage to plant; 0=no damage to plant), SETFA (rate 500, evaluated after 15 d): 70 | damage to plant (100=total damage to plant; 0=no damage to plant), SIDSP (rate 130, evaluated after 15 d): 0 | damage to plant (100=total damage to plant; 0=no damage to plant), SIDSP (rate 250, evaluated after 15 d): 0 | damage to plant (100=total damage to plant; 0=no damage to plant), SIDSP (rate 500, evaluated after 15 d): 30 | damage to plant (100=total damage to plant; 0=no damage to plant), SORVU (rate 130, evaluated after 15 d): 0 | damage to plant (100=total damage to plant; 0=no damage to plant), SORVU (rate 250, evaluated after 15 d): 0 | damage to plant (100=total damage to plant; 0=no damage to plant), SORVU (rate 500, evaluated after 15 d): 20
